One series deals with T1, Cytochrome P450 2B6 (Homo sapiens, UniProt P20813).
T1 sequence (P20813 whole entry): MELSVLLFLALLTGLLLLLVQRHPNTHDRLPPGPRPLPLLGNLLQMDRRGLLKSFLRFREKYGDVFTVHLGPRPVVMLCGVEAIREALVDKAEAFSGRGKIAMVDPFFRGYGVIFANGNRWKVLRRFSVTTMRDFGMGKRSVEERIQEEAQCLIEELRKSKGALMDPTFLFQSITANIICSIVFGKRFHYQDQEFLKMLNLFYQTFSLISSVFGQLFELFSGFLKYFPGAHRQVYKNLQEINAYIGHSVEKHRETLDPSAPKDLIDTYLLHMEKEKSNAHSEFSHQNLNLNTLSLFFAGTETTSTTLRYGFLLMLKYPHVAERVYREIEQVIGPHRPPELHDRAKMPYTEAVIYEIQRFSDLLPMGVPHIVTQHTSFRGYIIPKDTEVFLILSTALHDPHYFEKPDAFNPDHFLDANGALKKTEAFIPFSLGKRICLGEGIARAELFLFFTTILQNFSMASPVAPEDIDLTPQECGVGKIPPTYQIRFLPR
As to the kind of experiment: (§1) Mechanism based inhibition of human cytochrome P450 2B6 measured by N-(3,5-dichloro-4-pyridyl)-3- (cyclopentoxy)-4- methoxybenzamide (DCMB) hydroxylase activity. Format: ADME.

A further series deals with T2, CYP2B6 (Homo sapiens, UniProt P20813).
T2 sequence (P20813 whole entry): T1 sequence (P20813 whole entry)
The description is as §1. It is filed as ADME. To be noted: human.

The next series deals with CYP3A4 (Homo sapiens, UniProt P08684). Kind of series: (§2) Mechanism based inhibition of human cytochrome P450 3A4 measured by nifedipine oxidation, omeprazole 3-hydroxylation and omeprazole sulfoxydation. Format: ADME. To be noted: human.
CYP3A4, sequence (P08684 whole entry): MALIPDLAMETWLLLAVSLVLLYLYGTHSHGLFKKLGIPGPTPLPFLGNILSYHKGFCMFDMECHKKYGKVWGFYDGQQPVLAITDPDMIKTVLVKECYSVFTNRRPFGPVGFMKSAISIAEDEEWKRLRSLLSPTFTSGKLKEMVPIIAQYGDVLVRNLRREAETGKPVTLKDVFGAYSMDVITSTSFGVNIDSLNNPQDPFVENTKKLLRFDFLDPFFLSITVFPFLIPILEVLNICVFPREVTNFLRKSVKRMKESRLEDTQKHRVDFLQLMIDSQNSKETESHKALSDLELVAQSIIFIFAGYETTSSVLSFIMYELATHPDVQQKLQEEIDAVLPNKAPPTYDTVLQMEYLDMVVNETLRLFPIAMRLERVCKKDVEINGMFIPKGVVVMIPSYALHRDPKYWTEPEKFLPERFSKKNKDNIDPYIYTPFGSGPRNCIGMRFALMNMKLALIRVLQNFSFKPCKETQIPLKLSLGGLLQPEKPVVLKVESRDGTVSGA
Series [1] concerns the target T3, Cytochrome P450 3A4 (Homo sapiens, UniProt P08684). The description is as §2. Format: ADME.
Series [2] has as its target T3, Cytochrome P450 3A4. Kind of series: Mechanism based inhibition of human cytochrome P450 3A4 measured by testosterone 6-beta hydroxylation. It is filed as ADME.
Series [3] concerns the target T4, Cytochrome P450 2B1 (Rattus norvegicus, UniProt P00176).
T4 sequence (P00176 whole entry): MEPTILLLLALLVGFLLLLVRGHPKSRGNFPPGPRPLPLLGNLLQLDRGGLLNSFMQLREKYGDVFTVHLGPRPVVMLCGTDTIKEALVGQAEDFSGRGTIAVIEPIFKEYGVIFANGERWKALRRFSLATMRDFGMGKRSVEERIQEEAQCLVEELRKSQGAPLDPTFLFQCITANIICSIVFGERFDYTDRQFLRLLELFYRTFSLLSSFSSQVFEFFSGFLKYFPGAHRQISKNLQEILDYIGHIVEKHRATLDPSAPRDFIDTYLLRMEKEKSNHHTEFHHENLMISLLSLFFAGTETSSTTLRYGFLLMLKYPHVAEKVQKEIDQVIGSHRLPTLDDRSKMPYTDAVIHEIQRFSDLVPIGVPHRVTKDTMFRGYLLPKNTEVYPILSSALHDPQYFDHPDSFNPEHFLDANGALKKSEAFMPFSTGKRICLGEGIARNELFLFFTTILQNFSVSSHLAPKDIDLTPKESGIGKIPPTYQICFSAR
As to the kind of experiment: Mechanism based inhibition of rat cytochrome P450 CYP2B1 measured by androstenedione 16-beta-hydroxylation and R- and S- warfarin hydroxylation. Format: ADME.

Another series deals with T5, CYP2B4 (Oryctolagus cuniculus, UniProt P00178).
T5 sequence (P00178 whole entry): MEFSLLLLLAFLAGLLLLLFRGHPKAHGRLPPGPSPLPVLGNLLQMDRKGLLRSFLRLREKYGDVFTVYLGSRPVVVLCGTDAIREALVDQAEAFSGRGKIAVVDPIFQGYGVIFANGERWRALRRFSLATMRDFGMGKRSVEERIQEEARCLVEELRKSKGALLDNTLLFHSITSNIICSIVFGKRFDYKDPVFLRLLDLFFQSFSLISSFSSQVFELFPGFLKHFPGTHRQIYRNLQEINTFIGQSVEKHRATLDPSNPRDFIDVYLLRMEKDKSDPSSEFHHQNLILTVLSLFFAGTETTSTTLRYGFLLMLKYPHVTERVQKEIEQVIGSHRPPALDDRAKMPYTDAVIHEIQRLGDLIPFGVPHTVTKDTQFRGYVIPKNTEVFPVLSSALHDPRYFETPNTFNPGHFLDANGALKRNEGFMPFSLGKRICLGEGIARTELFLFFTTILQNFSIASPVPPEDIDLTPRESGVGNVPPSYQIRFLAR
Kind of series: (§3) Mechanism based inhibition of rabbit cytochrome P450 CYP2B4 measured by 7-EFC O-deethylation activity. The settings on record: rabbit, probe 7-EFC (O-deethylation). It is filed as ADME.

Series [4] addresses T6, Cytochrome P450 2B4 (Oryctolagus cuniculus, UniProt P00178).
T6 sequence (P00178 whole entry): T5 sequence (P00178 whole entry)
Described as §3. It is filed as ADME.

For series [5], the target named is Cytochrome P450 2E1 (Oryctolagus cuniculus) (UniProt P08682). Kind of series: Mechanism based inhibition of rabbit cytochrome P450 CYP2E1 measured by 7-EFC O-deethylation activity. To be noted: probe 7-EFC (O-deethylation).
Cytochrome P450 2E1 (Oryctolagus cuniculus), sequence (P08682 whole entry, looked up): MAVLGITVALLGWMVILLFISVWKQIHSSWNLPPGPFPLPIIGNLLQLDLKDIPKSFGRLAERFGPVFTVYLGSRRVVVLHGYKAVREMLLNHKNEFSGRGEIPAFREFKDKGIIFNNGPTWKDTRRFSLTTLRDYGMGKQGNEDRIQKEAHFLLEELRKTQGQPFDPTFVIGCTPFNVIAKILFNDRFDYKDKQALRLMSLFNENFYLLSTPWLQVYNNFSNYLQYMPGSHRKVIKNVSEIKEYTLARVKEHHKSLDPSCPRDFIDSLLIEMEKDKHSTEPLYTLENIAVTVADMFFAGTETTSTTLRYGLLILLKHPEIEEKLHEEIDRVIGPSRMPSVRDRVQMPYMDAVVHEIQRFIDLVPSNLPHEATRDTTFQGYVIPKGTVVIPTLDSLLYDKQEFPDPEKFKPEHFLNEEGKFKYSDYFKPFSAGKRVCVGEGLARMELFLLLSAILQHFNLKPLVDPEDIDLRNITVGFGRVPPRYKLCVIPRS
Series [6] concerns the target T4, Cytochrome P450 2B1. As to the kind of experiment: Mechanism based inhibition of rat cytochrome P450 CYP2B1 partition ratio. It is filed as ADME.
The target of series [7] is T4, Cytochrome P450 2B1. Kind of series: (§4) Mechanism based inhibition of rat cytochrome P450 CYP2B1 measured by 7-pentoxyresorufin […] activity (PROD). Format: ADME.
For a further series, the target named is T7, CYP2B1 (Rattus norvegicus, UniProt P00176).
T7 sequence (P00176 whole entry): T4 sequence (P00176 whole entry)
Described as §4. Format: ADME. To be noted: rat, probe 7-pentoxyresorufin (O-deethylation, PROD).

For a further series, the target named is T8, Cytochrome P450 1A2 (Rattus norvegicus, UniProt P04799).
T8 sequence (P04799 whole entry): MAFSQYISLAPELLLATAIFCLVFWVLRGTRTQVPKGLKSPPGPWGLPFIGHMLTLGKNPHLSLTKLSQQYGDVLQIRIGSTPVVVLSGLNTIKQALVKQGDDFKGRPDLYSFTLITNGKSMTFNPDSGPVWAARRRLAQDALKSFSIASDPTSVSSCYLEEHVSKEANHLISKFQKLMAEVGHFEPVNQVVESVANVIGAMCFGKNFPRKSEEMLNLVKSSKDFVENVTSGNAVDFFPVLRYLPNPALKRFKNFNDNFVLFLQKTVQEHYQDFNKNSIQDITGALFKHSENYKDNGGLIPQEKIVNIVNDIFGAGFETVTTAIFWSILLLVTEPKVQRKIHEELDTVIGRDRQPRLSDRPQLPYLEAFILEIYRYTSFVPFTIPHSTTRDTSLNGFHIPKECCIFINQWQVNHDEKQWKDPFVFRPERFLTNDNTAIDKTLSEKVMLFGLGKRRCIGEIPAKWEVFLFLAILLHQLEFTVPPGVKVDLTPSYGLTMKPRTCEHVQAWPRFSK
As to the kind of experiment: (§5) Mechanism based inhibition of rat cytochrome P450 CYP1A2 measured by 7-methoxyresorufin O-demethylation (MROD). It is filed as ADME.

For the next series, the target named is T9, CYP1A2 (Rattus norvegicus, UniProt P04799).
T9 sequence (P04799 whole entry): T8 sequence (P04799 whole entry)
The description is as §5. It is filed as ADME. To be noted: rat, probe 7-methoxyresorufin (O-demethylation, MROD).

The target of series [8] is T6, Cytochrome P450 2B4. Kind of series: Mechanism based inhibition of rabbit cytochrome P450 CYP2B4 partition ratio. Format: ADME.

T3 sequence (P08684 whole entry): as the sequence (P08684 whole entry) above

As to `C#CCOc1cc(C(=O)Nc2c(Cl)cncc2Cl)ccc1OC`, on Cytochrome P450 2B6, the Ki was 5100 nM. The kinact at CYP2B6 is 0.0015 s⁻¹.

Consider `C=C(C)C(CC/C(C)=C/COc1c2ccoc2cc2oc(=O)ccc12)OC(C)(C)C(O)CC/C(C)=C/COc1c2ccoc2cc2oc(=O)ccc12` (configuration not stated), for which the kinact on CYP3A4 is 0.000833 s⁻¹. This compound yielded a Ki at Cytochrome P450 3A4 [1] of 310 nM. Further, the mechanism based inhibition entry at Cytochrome P450 3A4 [2] was “Cytochrome P450 mechanistic inhibitor: PMID 10859150”.

On to `O=C(NCCc1ccc(Br)cc1)C(F)Cl` (configuration not stated), for which the mechanism based inhibition entry at Cytochrome P450 2B1 [3] was “Cytochrome P450 mechanistic inhibitor: PMID 1971568”.

In the case of `O=C(NCCc1ccc([N+](=O)[O-])cc1)C(F)Cl` (configuration not stated), the mechanism based inhibition entry at Cytochrome P450 2B1 [3] is “Cytochrome P450 mechanistic inhibitor: PMID 1971568”.

In the case of `C#CC(C)(C)C`, the kinact on CYP2B4 is 0.00383 s⁻¹; in series [5] it was 0.00333 s⁻¹. Moreover, the Ki on Cytochrome P450 2B4 [4] came out at 75000 nM.

For `C#Cc1ccc2ccc(=O)oc2c1`, at Cytochrome P450 2B1 [6], the partition_ratio came to 25.

Take `C#Cc1cc2ccccc2c2ccccc12`: the values for the Ki at Cytochrome P450 2B1 [7] and at Cytochrome P450 1A2 were 140 nM and 30 nM, respectively. Besides, the kinact is 0.0075 s⁻¹ on CYP2B1 and 0.000667 s⁻¹ on CYP1A2.

`C#CCN(C)C(C)CCCCC.C#CCN[C@@H](C)CCCCC.C#CCN[C@H](C)CCCCC` (configuration not stated): the Ki on Cytochrome P450 2B1 [7] was determined as 800 nM. Besides, the maximal inactivation rate constant (kinact) on CYP2B1 was 0.00133 s⁻¹.

Regarding `C#CC(C)OC(C)(C)C` (configuration not stated), the kinact is 0.0533 s⁻¹ on CYP2B4 and 0.002 s⁻¹ in series [5]. The Ki at Cytochrome P450 2B4 [4] amounted to 37000 nM. The mechanism based inhibition result at Cytochrome P450 2B4 [4] (rabbit) was “Cytochrome P450 mechanistic inhibitor: PMID 15751959”. For the same compound, the partition_ratio on Cytochrome P450 2B4 [8] came to 12.
